From ChEMBL document CHEMBL1201862, “PubChem BioAssay data set” (2004)
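Cultured in 96-well plates, cells were exposed to test compound for 48 hours across five concentrations. GI50: concentration for 50% inhibition of growth.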 The source made the active and inactive calls. No stated cut-off is given here; in the data, active = GI50 up to about 1.1 µM and inactive = higher.

How the values were obtained:
Test in all cases: growth of human tumour cells (NCI), 48 h
A498 = tested on: A498
SF-295 = tested on: SF-295
U-251 = tested on: U-251
HCC 2998 = tested on: HCC 2998
KM12 = tested on: KM12
RPMI-8226 = tested on: RPMI-8226
OVCAR-4 = tested on: OVCAR-4
SN12C = tested on: SN12C
UACC-62 = tested on: UACC-62
ACHN = tested on: ACHN
NCI-H226 = tested on: NCI-H226
OVCAR-8 = tested on: OVCAR-8
TK-10 = tested on: TK-10
SW-620 = tested on: SW-620
OVCAR-5 = tested on: OVCAR-5
MCF7 = tested on: MCF7
HOP-62 = tested on: HOP-62
NCI-H23 = tested on: NCI-H23
CCRF-CEM = tested on: CCRF-CEM
MDA-N = tested on: MDA-N

Measured: GI50

Cc1cc2c(cc1-c1cc3c(cc1C)C(C(C)C)=C(O)C(=O)/C3=C\Nc1cccc3c(N)cccc13)/C(=C/Nc1cccc3c(N)cccc13)C(=O)C(O)=C2C(C)C
inactive: A498 > 100 µM | SF-295 > 100 µM | U-251 49.1 µM | HCC 2998 > 100 µM | KM12 > 100 µM | RPMI-8226 > 100 µM | OVCAR-4 > 100 µM | SN12C > 100 µM | UACC-62 > 100 µM | ACHN > 100 µM | NCI-H226 > 100 µM | OVCAR-8 > 100 µM | TK-10 > 100 µM | SW-620 > 100 µM | OVCAR-5 > 100 µM | MCF7 > 100 µM | HOP-62 > 100 µM | NCI-H23 > 100 µM | CCRF-CEM 39.2 µM | MDA-N > 100 µM

CSc1nnc(SCc2nn3c(=O)cc(C)nc3s2)s1
inactive: A498 > 100 µM | SF-295 > 100 µM | U-251 > 100 µM | HCC 2998 > 100 µM | KM12 > 100 µM | RPMI-8226 > 100 µM | OVCAR-4 24.4 µM | SN12C > 100 µM | UACC-62 > 100 µM | ACHN > 100 µM | NCI-H226 > 100 µM | OVCAR-8 > 100 µM | TK-10 > 100 µM | SW-620 > 100 µM | OVCAR-5 > 100 µM | MCF7 > 100 µM | HOP-62 > 100 µM | NCI-H23 > 100 µM | CCRF-CEM > 100 µM | MDA-N > 100 µM
